Data: patent US11565998B2, “Succinate prodrug, compositions containing the succinate prodrug and uses thereof” (ABLIVA AB, priority 2019, dated 2023)

How the values were obtained:
[1] = Carbonate concentration dependence; format: physicochemical; details: HPLC water, 1 mg/ml
Method: Compound 1 Batch 14 (2-3 mg) was dissolved in HPLC grade water (1 mg/ml) containing different concentrations of calcium carbonate and samples were taken at different time intervals for HPLC analysis.

[2] = Carbonate instability (calcium and carbonate sources); format: physicochemical; details: for Percentage of Compound 1 remaining compared to T = 0: 1 mg/ml
Method: Compound 1 Batch 14 (2-3 mg) was dissolved in HPLC grade water at room temperature (1 mg/ml) containing different sources of calcium and carbonate ions (two concentrations for each source, with the pH recorded) and samples were taken at different time intervals for HPLC analysis.
Calcium and carbonate sources used in the form of inorganic salts: […]

Caco-2 cells = assay: Caco-2 bioavailability in vitro assay (apparent permeability); format: in vitro ADME; details: Caco-2
Method: (§1) The cell penetrance and potential for oral bioavailability of Compound 1 was tested using a standard caco-2 bioavailability in vitro assay (in brief, confluent Caco-2 cells (L1, A. P., 1992; Grass, G. M; et al., 1992, Volpe, D. A., et al., 2001) in a 24 well Corning Costar Transwell format were provided by In Vitro Technologies Inc. (IVT Inc., Baltimore, Md., USA). The apical chamber contained 0.15 mL Hank's balanced buffer solution (HBBS) pH 7.4, 1% DMSO, 0.1 mM Lucifer Yellow. The basal chamber contained 0.6 mL HBBS pH 7.4, 1% DMSO. Controls and tests were incubated at 37° C. in a humidified incubator, shaken at 130 rpm for 1 h. Lucifer Yellow permeates via the paracellular (between the tight junctions) route only, a high Apparent Permeability (Papp) for Lucifer Yellow indicates cellular damage during assay and all such wells were rejected. Propranolol (good passive permeation with no known transporter effects) & acebutalol (poor passive permeation attenuated by active efflux by P-glycoprotein) were used as reference compounds. Compounds were tested in a uni- and bi-directional format by applying compound to the apical or basal chamber (at 0.01 mM). Compounds in the apical or basal chambers were analysed by HPLC-MS. Results were expressed as Apparent Permeability, Papp, (nm/s), in comparison to other succinate prodrugs, including a number from WO2015/155231.

[3] = as above; format: in vitro ADME; details: human; Caco-2, apical to basolateral, 0.01 mM, pH 7.4, 1 h, 37° C.
Method: as §1

[4] = Stability in purified (HPLC grade) or non-purified (tap) water; format: physicochemical; details: room temperature, 6 days
Method: A side-by-side experiment of the stability of Compound 1 in ‘purified’ HPLC grade water (Fisher Scientific) and ‘non-purified’ tap water was set up. In brief, 1 mg/mL solutions of Compound 1 were generated in ‘purified’ HPLC grade water (Fisher Scientific) and ‘non-purified’ tap water. These were incubated at room temperature for up to 10 days. Concentration and purity of Compound 1 was assessed over time by HPLC in comparison to a standard (AUC of 8.21 RT peak at 230 nm for calculated concentration and AUC of Compound 1 peak vs impurities for purity analysis). Data presented is the average of two samples.

[5] = In vivo pharmacokinetic studies

## COC(=O)CCC(=O)SCCNC(C)=O [Compound 1, Methyl 3-[(2-acetylaminoethylthio)carbonyl]propionate]
[1]; CaCO3 (0 mM), batch 14, day 0
  Percentage of Compound 1 remaining compared to T = 0: 100%
[1]; CaCO3 (0 mM), batch 14, day 7
  Percentage of Compound 1 remaining compared to T = 0: 98.7%
[1]; CaCO3 (0 mM), batch 14, day 14
  Percentage of Compound 1 remaining compared to T = 0: 98.6%
[1]; CaCO3 (0.425 mM), batch 14, day 0
  Percentage of Compound 1 remaining compared to T = 0: 100%
[1]; CaCO3 (0.425 mM), batch 14, day 7
  Percentage of Compound 1 remaining compared to T = 0: 98.1%
[1]; CaCO3 (0.425 mM), batch 14, day 14
  Percentage of Compound 1 remaining compared to T = 0: 98.4%
[1]; CaCO3 (0.85 mM), batch 14, day 0
  Percentage of Compound 1 remaining compared to T = 0: 100%
[1]; CaCO3 (0.85 mM), batch 14, day 7
  Percentage of Compound 1 remaining compared to T = 0: 97.8%
[1]; CaCO3 (0.85 mM), batch 14, day 14
  Percentage of Compound 1 remaining compared to T = 0: 97.1%
[1]; CaCO3 (1.7 mM), batch 14, day 0
  Percentage of Compound 1 remaining compared to T = 0: 100%
[1]; CaCO3 (1.7 mM), batch 14, day 7
  Percentage of Compound 1 remaining compared to T = 0: 93.8%
[1]; CaCO3 (1.7 mM), batch 14, day 14
  Percentage of Compound 1 remaining compared to T = 0: 90.8%
[1]; CaCO3 (3.4 mM), batch 14, day 0
  Percentage of Compound 1 remaining compared to T = 0: 100%
[1]; CaCO3 (3.4 mM), batch 14, day 7
  Percentage of Compound 1 remaining compared to T = 0: 83.4%
[1]; CaCO3 (3.4 mM), batch 14, day 14
  Percentage of Compound 1 remaining compared to T = 0: 71.4%
[2]; (NH4)2CO3 (3.4 mM, pH 8.9), batch 14, day 0
  Percentage of Compound 1 remaining compared to T = 0: 100%
[2]; (NH4)2CO3 (3.4 mM, pH 8.9), batch 14, day 3
  Percentage of Compound 1 remaining compared to T = 0: 99.6%
[2]; (NH4)2CO3 (3.4 mM, pH 8.9), batch 14, day 17
  Percentage of Compound 1 remaining compared to T = 0: 85.5%
[2]; (NH4)2CO3 (3.4 mM, pH 9.3), batch 14, day 0
  Percentage of Compound 1 remaining compared to T = 0: 100%
[2]; (NH4)2CO3 (3.4 mM, pH 9.3), batch 14, day 3
  Percentage of Compound 1 remaining compared to T = 0: 98.9%
[2]; (NH4)2CO3 (3.4 mM, pH 9.3), batch 14, day 17
  Percentage of Compound 1 remaining compared to T = 0: 57.5%
[2]; Ca(NO3)2 (0.34 mM, pH 7.3), batch 14, day 0
  Percentage of Compound 1 remaining compared to T = 0: 100%
[2]; Ca(NO3)2 (0.34 mM, pH 7.3), batch 14, day 3
  Percentage of Compound 1 remaining compared to T = 0: 101%
[2]; Ca(NO3)2 (0.34 mM, pH 7.3), batch 14, day 17
  Percentage of Compound 1 remaining compared to T = 0: 97.5%
[2]; Ca(NO3)2 (3.4 mM, pH 7.2), batch 14, day 0
  Percentage of Compound 1 remaining compared to T = 0: 100%
[2]; Ca(NO3)2 (3.4 mM, pH 7.2), batch 14, day 3
  Percentage of Compound 1 remaining compared to T = 0: 100%
[2]; Ca(NO3)2 (3.4 mM, pH 7.2), batch 14, day 17
  Percentage of Compound 1 remaining compared to T = 0: 97.1%
[2]; CaCO3 (0.34 mM, pH 7.6), batch 14, day 0
  Percentage of Compound 1 remaining compared to T = 0: 100%
[2]; CaCO3 (0.34 mM, pH 7.6), batch 14, day 3
  Percentage of Compound 1 remaining compared to T = 0: 93.8%
[2]; CaCO3 (0.34 mM, pH 7.6), batch 14, day 17
  Percentage of Compound 1 remaining compared to T = 0: 50.4%
[2]; CaCO3 (3.4 mM, pH 7.6), batch 14, day 0
  Percentage of Compound 1 remaining compared to T = 0: 100%
[2]; CaCO3 (3.4 mM, pH 7.6), batch 14, day 3
  Percentage of Compound 1 remaining compared to T = 0: 93.6%
[2]; CaCO3 (3.4 mM, pH 7.6), batch 14, day 17
  Percentage of Compound 1 remaining compared to T = 0: 49.5%
[2]; CaCl2 (0.34 mM, pH 7.4), batch 14, day 0
  Percentage of Compound 1 remaining compared to T = 0: 100%
[2]; CaCl2 (0.34 mM, pH 7.4), batch 14, day 3
  Percentage of Compound 1 remaining compared to T = 0: 98.4%
[2]; CaCl2 (0.34 mM, pH 7.4), batch 14, day 17
  Percentage of Compound 1 remaining compared to T = 0: 95.1%
[2]; CaCl2 (3.4 mM, pH 7.5), batch 14, day 0
  Percentage of Compound 1 remaining compared to T = 0: 100%
[2]; CaCl2 (3.4 mM, pH 7.5), batch 14, day 3
  Percentage of Compound 1 remaining compared to T = 0: 101%
[2]; CaCl2 (3.4 mM, pH 7.5), batch 14, day 17
  Percentage of Compound 1 remaining compared to T = 0: 96.7%
[2]; HPLC water (control, pH 6.5), batch 14, day 0
  Percentage of Compound 1 remaining compared to T = 0: 100%
[2]; HPLC water (control, pH 6.5), batch 14, day 3
  Percentage of Compound 1 remaining compared to T = 0: 94.3%
[2]; HPLC water (control, pH 6.5), batch 14, day 17
  Percentage of Compound 1 remaining compared to T = 0: 91.4%
[2]; vs calcium chloride / nitrate and control
  degradation in aqueous solution with carbonate ions: degrades more rapidly
Caco-2 cells
  Apical to Basolateral transfer, rank among prodrugs tested: highest
[3]
  Papp A→B at 1 h, 0.01 mM: 0.412 ×10⁻⁶ cm/s
[4]; (non-purified) tap water
  degradation (loss in purity and assay): Significant degradation
[4]; (purified) HPLC grade water
  degradation (loss in purity and assay): not observed
[5]
  brain penetration: brain penetrant
  oral bioavailability: high oral bioavailability
